According to the NIST ThermoML archive (doi:10.1016/j.tca.2011.10.030):
± gives the expanded uncertainty stated by the source.

What was measured:
[1] = 101 kPa, Liquid; for viscosity: Capillary tube (Ostwald / Ubbelohde) method; for mass density: Vibrating tube method
[2] = xn = mol fraction of the nth substance listed; details: 101 kPa, Liquid, x2 = 0; for viscosity: Capillary tube (Ostwald / Ubbelohde) method; for mass density: Vibrating tube method

`CCCCCCn1cc[n+](C)c1.F[B-](F)(F)F` [1-hexyl-3-methylimidazolium tetrafluoroborate] gave a viscosity ([1]; 293.15 K) of 232.65 mPa·s, a mass density ([1]; 293.15 K) of 1149.24 ± 5.1 kg/m3 and a viscosity ([1]; 303.15 K) of 130.02 mPa·s. The mass density ([1]; 303.15 K) was 1142.48 ± 5.1 kg/m3, the viscosity ([1]; 313.15 K) was 78.24 mPa·s and the mass density ([1]; 313.15 K) was 1135.79 ± 5.1 kg/m3. For the same compound, the viscosity ([1]; 323.15 K) was 50.3 mPa·s, the mass density ([1]; 323.15 K) was 1129.08 ± 5.1 kg/m3 and the viscosity ([1]; 333.15 K) was 34.02 mPa·s. For the same compound, the mass density ([1]; 333.15 K) was 1122.37 ± 5.1 kg/m3.

Work on `CCCO` [propan-1-ol] yielded a viscosity ([1]; 293.15 K) of 2.204 ± 0.02 mPa·s, a mass density ([1]; 293.15 K) of 809.62 ± 5 kg/m3 and a viscosity ([1]; 303.15 K) of 1.615 ± 0.015 mPa·s. The mass density ([1]; 303.15 K) was 801.43 ± 5 kg/m3, the viscosity ([1]; 313.15 K) was 1.188 ± 0.011 mPa·s and the mass density ([1]; 313.15 K) was 793.09 ± 5 kg/m3. For the same compound, the viscosity ([1]; 323.15 K) was 0.8796 ± 0.0084 mPa·s, the mass density ([1]; 323.15 K) was 784.54 ± 5 kg/m3 and the mass density ([1]; 333.15 K) was 775.74 ± 5 kg/m3.

With `CCCO` [propan-1-ol] + CCCCCCn1cc[n+](C)c1.F[B-](F)(F)F the viscosity ([2]; 293.15 K) was 2.204 ± 0.02 mPa·s, the mass density ([2]; 293.15 K) was 809.62 ± 5 kg/m3 and the viscosity ([2]; 303.15 K) was 1.615 ± 0.015 mPa·s. The mass density ([2]; 303.15 K) was 801.43 ± 5 kg/m3, the viscosity ([2]; 313.15 K) was 1.188 ± 0.011 mPa·s and the mass density ([2]; 313.15 K) was 793.09 ± 5 kg/m3. The viscosity ([2]; 323.15 K) was 0.8796 ± 0.0084 mPa·s, the mass density ([2]; 323.15 K) was 784.54 ± 5 kg/m3 and the viscosity ([2]; 333.15 K) was 0.5985 ± 0.006 mPa·s. The mass density ([2]; 333.15 K) was 775.74 ± 5 kg/m3.
